In patent US20040253193A1, “Oral rinse for treatment for prevention of bacterial and fungal infection” (priority 2001, published 2004):

Tests used:
[1] = type: physicochemical
Protocol: Metronidazole (Apo-Metronidazole, Apotex Research Inc.) was prepared by grinding tablets into a powder form and water is added to make a paste. The paste was added to a suitable quantity of nystatin, which was obtained as an aqueous solution from Alimed or PMS PharmaScience (Nilstat™). […] The mouth rinse has a slightly sticky consistency that provides effective contact with the tissues.

[2] = tested on: anaerobic gram-negative microorganisms; conditions: short-term systemic use, administered orally in humans; cited from earlier work

- solubility in water [1]: does not dissolve in water
SMILES: Cc1ncc([N+](=O)[O-])n1CCO [metronidazole]
- effect on anaerobic gram-negative microorganisms and periodontal health [2]: sustained reduction of anaerobic gram-negative microorganisms
